Experimental findings from patent US8372840B2, “Potassium channel blockers” (Xention Limited, priority 2008, dated 2013) are described below.

Chain of hKv1.5 (P22460 whole entry): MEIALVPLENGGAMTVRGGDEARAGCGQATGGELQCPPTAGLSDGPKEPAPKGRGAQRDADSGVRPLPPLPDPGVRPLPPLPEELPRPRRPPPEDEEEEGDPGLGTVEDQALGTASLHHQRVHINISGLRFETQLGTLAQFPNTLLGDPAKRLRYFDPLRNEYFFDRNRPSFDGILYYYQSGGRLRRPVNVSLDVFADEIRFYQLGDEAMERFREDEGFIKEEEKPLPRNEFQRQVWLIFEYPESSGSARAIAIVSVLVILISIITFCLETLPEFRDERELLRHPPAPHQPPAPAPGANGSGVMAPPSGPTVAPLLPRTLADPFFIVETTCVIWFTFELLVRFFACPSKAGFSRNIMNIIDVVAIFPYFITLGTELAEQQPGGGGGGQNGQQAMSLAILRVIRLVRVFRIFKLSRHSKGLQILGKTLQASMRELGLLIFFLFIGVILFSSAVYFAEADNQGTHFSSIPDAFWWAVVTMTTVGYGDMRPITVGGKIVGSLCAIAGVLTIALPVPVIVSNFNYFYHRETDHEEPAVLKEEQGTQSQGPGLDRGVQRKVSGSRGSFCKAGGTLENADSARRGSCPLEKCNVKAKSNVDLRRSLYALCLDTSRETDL
T1 sequence (P22001 whole entry): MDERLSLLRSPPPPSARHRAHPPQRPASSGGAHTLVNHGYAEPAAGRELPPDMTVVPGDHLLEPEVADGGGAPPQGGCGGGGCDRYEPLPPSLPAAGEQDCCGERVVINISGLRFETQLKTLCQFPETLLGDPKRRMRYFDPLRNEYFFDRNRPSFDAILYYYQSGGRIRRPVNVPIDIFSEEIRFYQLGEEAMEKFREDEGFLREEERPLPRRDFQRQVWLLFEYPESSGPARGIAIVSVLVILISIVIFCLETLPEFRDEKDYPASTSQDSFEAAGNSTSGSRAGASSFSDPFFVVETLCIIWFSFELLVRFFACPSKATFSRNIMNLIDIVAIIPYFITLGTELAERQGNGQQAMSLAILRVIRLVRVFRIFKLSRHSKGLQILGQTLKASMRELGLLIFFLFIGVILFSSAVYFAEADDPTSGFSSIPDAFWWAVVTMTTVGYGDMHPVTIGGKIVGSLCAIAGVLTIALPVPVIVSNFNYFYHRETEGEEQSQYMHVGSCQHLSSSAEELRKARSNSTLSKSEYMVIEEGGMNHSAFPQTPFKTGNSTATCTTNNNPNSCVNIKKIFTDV

The first assay addresses hKv1.5 (Homo sapiens, UniProt P22460). Put plainly: Kv1.5 Autopatch Electrophysiology (whole cell patch-clamp). It is filed as cell-based. Particulars: compound 1 μM, step to 0 mV for 1000 ms, total charge, room temperature (22-24° C.). Here is the method:
The external bathing solution contained (in mM): 150 NaCl, 10 KCl, […], 3 MgCl2, 1 CaCl2, 10 HEPES, pH 7.4. Patch pipettes were filled with an electrode solution of composition (in mM): 160 KCl, 0.5 MgCl2, 10 HEPES, 1 EGTA, pH 7.4 with KOH.
Compounds were dissolved in DMSO (100%) and made up in the external bather at a concentration of 1 μM. All experiments were conducted at room temperature (22-24° C.).
A cell suspension (10 ml), with a density of 100,000 cells/ml, was aliquoted into a 15 ml centrifuge tube and transferred to an incubator (37° C., 5% CO2) for approximately one hour before use. Following 60 min incubation, a tube was taken and centrifuged at 1000 rpm for 4 mins at room temperature. 9.5 ml supernatant was thence discarded, leaving a cell pellet at the bottom of the tube. The pellet was then resuspended using 100 μl of cold (4° C.), filtered (0.22 μm), 0.2% BSA/bather solution (0.02 g BSA/10 ml bather). The bottom of the tube was manually agitated gently until the solution became cloudy with cells. The 100 μl cell resuspension solution was then stored on the bench at 4° C. (using a Peltier-based temperature control device) until used.
A length of capillary glass (1B150E-4, WPI) was dipped into the cell suspension solution, such that ˜3 cm column of fluid was taken up by capillary action. A Ag/AgCl wire was dropped into the non-dipped end of the capillary also. The outside of the solution-filled end of the capillary was then dried and the capillary was loaded into the AutoPatch™
(§1) Borosilicate glass patch pipettes (from 1.5 mm OD, thin-walled filamented, GC150-TF capillary glass, Harvard) were pulled using a DMZ pipette puller (Zeitz Instruments), and were back-filled using the internal pipette solution, being careful that no bubbles remain at the tip or in the body of the pipette. Patch pipettes typically had resistances of 2.3-3.5 MΩ. Once filled, the pipette tip and a proportion of the shaft (˜15 mm) were dipped into Sigmacote (Sigma). The recording pipette was then loaded into the AutoPatch™. Automated patch-clamping was initiated by the operator, but thereafter AutoPatch.exe continued the experiment providing that pre-set conditions and criteria were satisfied.
Whole cell patch-clamp recordings were made using the AutoPatch™ rig, which incorporated an EPC9 amplifier (HEKA, Germany) under control of Pulse software (v8.54, HEKA, Germany), a motion controller with 2 translators (Newport, UK), valve controller (VF1) and a c-level suction device all at room temperature (22-24° C.). This equipment was completely under the control of AutoPatch.exe and operator intervention was only made when there was a requirement to refill the drug reservoirs or to prevent the loss of a cell due to a technical error. Cells with an Rseries greater than 18 MΩ were discounted from the experiment.
Qualification stages prior to perfusion and drug application ensured that the observed current met the criteria for the experiment. Only those cells with an IK>500 pA were used for experiments. Cells were continuously perfused with external solution at a flow rate of 1.8-2 ml/minute. […] Online analysis of the hKv1.5 current during the application of compounds was performed by the AutoPatch™ software. Voltage-step protocols and analysis of data was performed as described for conventional electrophysiology.
Electrophysiology voltage-step protocols and analysis of data was performed as follows. Data was sampled at 5 kHz, and filtered with a −3 dB bandwidth of 2.5 kHz. Cells were held at a voltage of −80 mV. Currents were evoked to a voltage step for 1000 ms in duration at 0 mV every 5 s. Currents were analysed using Pulsefit software (v8.54, HEKA, Germany), with the total charge measured during the whole of the voltage step. All other plots were produced using Igor Pro (WaveMetrics).
The compound “N-(4-Chloro-benzyl)-3-cyano-N-(3-morpholin-4-yl-phenyl)-benzenesulfonamide [Example 30]” had a hKv1.5 % inh. of 97%.
Same read-out and setting: the figure for “3-Oxo-3,4-dihydro-2H-benzo[1,4]oxazine-6-sulfonic acid (4-chloro-benzyl)-[3-(2-oxo-pyrrolidin-1-yl)-phenyl]-amide [Example 29]” is 72%; for “1-Methyl-1H-pyrazole-4-sulfonic acid benzyl-[3-(2-oxo-pyrrolidin-1-yl)-phenyl]-amide [Example 24]” it is 41%.
In turn, “N-Benzyl-3-cyano-N-[3-(2-oxo-pyrrolidin-1-yl)-phenyl]-benzenesulfonamide [Example 22]” displayed a hKv1.5 % inh. of 82%.
Turning to “2-Methyl-2H-pyrazole-3-sulfonic acid (4-chloro-benzyl)-[3-(2-oxo-pyrrolidin-1-yl)-phenyl]-amide [Example 26]”, the hKv1.5 % inh. was found to be 43%.
In the case of “Pyridine-3-sulfonic acid (4-chloro-benzyl)-(3-morpholin-4-yl-phenyl)-amide [Example 35]”, the hKv1.5 % inh. came to 84%.

Still in this assay, the particulars now being: compound 1 μM, step to 0 mV for 1000 ms, total charge, room temperature (22-24° C.), read-out: hKv1.5 % inh.
For the compound `Cn1cc(S(=O)(=O)N(Cc2ccc(Cl)cc2)c2cccc(N3CCCC3=O)c2)cn1` [Example 28, 1-Methyl-1H-pyrazole-4-sulfonic acid (4-chloro-benzyl)-[3-(2-oxo-pyrrolidin-1-yl)-phenyl]-amide], the inhibition at 1 µM stood at 49%.
Turning to `Cn1nccc1S(=O)(=O)N(Cc1ccc(Cl)cc1)c1cccc(N2CCOCC2)c1` [Example 31, 2-Methyl-2H-pyrazole-3-sulfonic acid (4-chloro-benzyl)-(3-morpholin-4-yl-phenyl)-amide], the inhibition at 1 µM worked out at 47%.
Same read-out and setting: the figure for `N#Cc1cccc(S(=O)(=O)N(Cc2ccccc2)c2cccc(N3CCOCC3)c2)c1` [Example 20, N-Benzyl-3-cyano-N-(3-morpholin-4-yl-phenyl)-benzenesulfonamide] is 90%.
On the same count and under the same terms, the figure for `Cn1cc(S(=O)(=O)N(Cc2ccc(Cl)cc2)c2cccc(N3CCOCC3)c2)cn1` [Example 33, 1-Methyl-1H-pyrazole-4-sulfonic acid (4-chloro-benzyl)-(3-morpholin-4-yl-phenyl)-amide] is 58%; for `Cc1nc(S(=O)(=O)N(Cc2ccc(Cl)cc2)c2cccc(N3CCCC3=O)c2)cn1C` [Example 25, 1,2-Dimethyl-1H-imidazole-4-sulfonic acid (4-chloro-benzyl)-[3-(2-oxo-pyrrolidin-1-yl)-phenyl]-amide] it is 39%.
`CN1CCOc2cc(S(=O)(=O)N(Cc3ccc(Cl)cc3)c3cccc(N4CCCC4=O)c3)ccc21` [Example 27, 4-Methyl-3,4-dihydro-2H-benzo[1,4]oxazine-7-sulfonic acid (4-chloro-benzyl)-[3-(2-oxo-pyrrolidin-1-yl)-phenyl]-amide]: the inhibition at 1 µM was 84%.
As to `O=C1COc2ccc(S(=O)(=O)N(Cc3ccc(Cl)cc3)c3cccc(N4CCOCC4)c3)cc2N1` [Example 34, 3-Oxo-3,4-dihydro-2H-benzo[1,4]oxazine-6-sulfonic acid (4-chloro-benzyl)-(3-morpholin-4-yl-phenyl)-amide], the inhibition at 1 µM was 68%.
For `O=C1COc2ccc(S(=O)(=O)N(Cc3ccccc3)c3cccc(N4CCCC4=O)c3)cc2N1` [Example 17, 3-Oxo-3,4-dihydro-2H-benzo[1,4]oxazine-6-sulfonic acid benzyl-[3-(2-oxo-pyrrolidin-1-yl)-phenyl]-amide], the inhibition at 1 µM stood at 45%.
Still for that read-out and setting: the figure for `CN1CCOc2cc(S(=O)(=O)N(Cc3ccc(Cl)cc3)c3cccc(N4CCOCC4)c3)ccc21` [Example 32, 4-Methyl-3,4-dihydro-2H-benzo[1,4]oxazine-7-sulfonic acid (4-chloro-benzyl)-(3-morpholin-4-yl-phenyl)-amide] is 64%.
For the compound `CN1CCOc2cc(S(=O)(=O)N(Cc3ccccc3)c3cccc(N4CCOCC4)c3)ccc21` [Example 21, 4-Methyl-3,4-dihydro-2H-benzo[1,4]oxazine-7-sulfonic acid benzyl-(3-morpholin-4-yl-phenyl)-amide], the inhibition at 1 µM worked out at 72%.

A further assay concerns the target T1, human Kv1.3 (Homo sapiens, UniProt P22001).
T1 construct: expressed in transfected cells; host or cells: stably transfected cells grown in medium for CHO cells
Description: Kv1.3 Autopatch Electrophysiology (whole cell patch-clamp, stably transfected CHO cells). Type of assay: cell-based. Particulars: compound 1 μM, step to +30 mV for 500 ms, inhibition of total charge relative to control, room temperature. Here is the method:
Cells stably transfected with cDNA for human Kv1.3 (in pcDNA3.1) were grown in Ex-cell 302 serum-free medium for CHO cells, supplemented with 10 μl/ml [100×] glutamine, 500 μg/ml G418 ([…]), and 1% HT supplement (50×, hypoxanthine and thymidine). Compounds were tested on these cells using the AutoPatch technology in whole cell mode.
The external bathing solution contained (in mM): 150 NaCl, 10 KCl, 1 MgCl2, 3 CaCl2, 10 HEPES, pH 7.4 with NaOH. Patch pipettes were filled with an electrode solution of composition (in mM): 100 K-Gluconate, 20 KCl, 1 MgCl2, 1 CaCl2, 10 HEPES, 11 EGTA, 5 ATP-Na2, 2 Glutathione pH 7.2 with KOH.
Compounds were dissolved in DMSO (100%) and made up in the external bather at a concentration of 1 μM immediately prior to use. All experiments were conducted at room temperature.
A cell suspension (10 ml), with a density of 6×10^6 cells, was aliquoted into a 15 ml centrifuge tube and stored at 4° C. before use. Prior to use a tube was taken and centrifuged at 1000 rpm for 4 mins at room temperature. The supernatant was then discarded, leaving a cell pellet at the bottom of the tube. The pellet was then resuspended using 1 ml of cold (4° C.), filtered (0.22 μm), 0.05% BSA/bather solution (0.05 g BSA/100 ml bather). The bottom of the tube was manually agitated followed by gentle tituration. The cell suspension was then placed in the AutoPatch™ temperature controlled cell-hotel at 14° C. and regularly titurated.
as §1, with “A length of Teflon capillary tubing was dipped into the cell suspension solution, and a column of fluid was taken up by negative pressure. The column of fluid was in electrically connectivity with a Ag/AgCl reference electrode. Borosilicate” for “Borosilicate”, “remained” for “remain”, “2.5-3.5” for “2.3-3.5”, “pipettes were placed in a multiwell array and mounted on” for “pipette was then loaded into”, “AutoPatch™ machine.” for “AutoPatch™.”, “patch-clamping and drug-application” for “patch-clamping”
Whole cell patch-clamp recordings were made using the AutoPatch™ rig, which incorporated an EPC9 or EPC10 amplifier (HEKA, Germany) under control of Pulse software (v8.54 or v8.76, HEKA, Germany), a cell applicator, automated drug application system (DAS), valve controller (VF1) and a suction device all at room temperature. This equipment was completely under the control of AutoPatch.exe and operator intervention was only made when there was a requirement to refill the bather reservoirs or to prevent the loss of a cell due to a technical error.
Qualification stages prior to perfusion and drug application ensured that the observed current met the criteria for the experiment. Cells were continuously perfused with external solution at a flow rate of ˜2 ml/minute.
Electrophysiology voltage-step protocols and analysis of data was performed as follows. Data were sampled at 5 kHz, and filtered with a −3 dB bandwidth of 2.5 kHz. Cells were held at a voltage of −80 mV. Currents were evoked by a voltage step to +30 mV for 500 ms in duration applied every 15 s. Online analysis of the hKv1.3 current during the application of compounds was performed by the Pulse (v8.54 or v8.76, HEKA, Germany), Excel (Microsoft, USA) and AutoPatch™ software, with the total charge measured during the whole of voltage step Inhibition of charge movement in the presence of drug was calculated relative to control.
Turning to “1-Methyl-1H-imidazole-4-sulfonic acid benzyl-[3-(4-phenyl-piperazin-1-yl)-phenyl]-amide [Example 13]”, the hKv1.3 % inh. was 41%.
“1-Methyl-1H-pyrazole-3-sulfonic acid (4-chloro-benzyl)-[4-fluoro-3-(2-oxo-pyrrolidin-1-yl)-phenyl]-amide [Example 37]”: the hKv1.3 % inh. was found to be 53%.
Still for that read-out and setting: the figure for “1-Methyl-1H-pyrazole-3-sulfonic acid benzyl-[3-(2-oxo-pyrrolidin-1-yl)-phenyl]-amide [Example 39]” is 74%.
